For 15 compounds, pest or weed control and plant injury results are on record in patent US20130324412A1, “N-ALKOXYAMIDES OF 6-(SUBSTITUTED PHENYL)-4-AMINOPICOLINATES AND 2-(SUBSTITUTED PHENYL)-6-AMINO-4-PYRIMIDINECARBOXYLATES AND THEIR USE AS SELECTIVE HERBICIDES FOR CROPS” (DOW AGROSCIENCES LLC, priority 2009, published 2013).

Each structure is given as a SMILES string.

Common to all, as to format: in vivo
In assay [1] the test system is wild buckwheat (Polygonum convululus). As to the kind of experiment: General postemergence herbicidal activity, wild buckwheat. The following applies: post-emergence, 336 h, postemergence, after 14 d, 0 = no injury, 100 = complete kill, read-out: POLCO % Visual Injury; for pest or weed control at 35 g/ha: 35 g ai/ha; for pest or weed control at 70 g/ha: 70 g ai/ha; for pest or weed control at 140 g/ha: 140 g ai/ha. The procedure: (§1) Seeds or nutlets of the desired test plant species were planted in Sun Gro MetroMix® 360 planting mixture, which typically has a pH of 6.0 to 6.8 and an organic matter content of about 30 percent, in plastic pots with a surface area of 64 square centimeters (cm^2). When required to ensure good germination and healthy plants, a fungicide treatment and/or other chemical or physical treatment was applied. The plants were grown for 7-21 days (d) in a greenhouse with an approximate 15-hour (h) photoperiod which was maintained at about 23-29° C. during the day and 22-28° C. during the night. Nutrients and water were added on a regular basis and supplemental lighting was provided with overhead metal halide 1000-Watt lamps as necessary. The plants were employed for testing when they reached the first or second true leaf stage.
(§2) A weighed amount, determined by the highest rate to be tested, of each test compound was dissolved in 4 mL of a 97:3 volume per volume (v/v) mixture of acetone and dimethyl sulfoxide (DMSO) to obtain concentrated stock solutions. […] The concentrated stock solutions obtained were diluted with 20 mL of an aqueous mixture containing acetone, water, isopropyl alcohol, DMSO, Atplus 411F crop oil concentrate, and Triton X-155 surfactant in a 48.5:39:10:1.5:1.0:0.02 v/v ratio to obtain spray solutions containing the highest application rates. Additional application rates were obtained by serial dilution of 12 mL of the high rate solution into a solution containing 2 mL of 97:3 v/v mixture of acetone and DMSO and 10 mL of an aqueous mixture containing acetone, water, isopropyl alcohol, DMSO, Atplus 411F crop oil concentrate, and Triton X-155 surfactant in a 48.5:39:10:1.5:1.0:0.02 v/v ratio to obtain ½×, ¼×, ⅛× and 1/16× rates of the high rate. Compound requirements are based upon a 12 mL application volume at a rate of 187 liters per hectare (L/ha). Formulated compounds were applied to the plant material with an overhead Mandel track sprayer equipped with 8002E nozzles calibrated to deliver 187 L/ha over an application area of 0.503 square meters (m^2) at a spray height of 18 inches (43 cm) above the average plant canopy height. Control plants were sprayed in the same manner with the solvent blank.
(§3) The treated plants and control plants were placed in a greenhouse as described above and watered by sub-irrigation to prevent wash-off of the test compounds. After 14 d, the condition of the test plants as compared with that of the untreated plants was determined visually and scored on a scale of 0 to 100 percent where 0 corresponds to no injury and 100 corresponds to complete kill.

Assay [2] deals with velvetleaf (Abutilon theophrasti). The assay can be described thus: General postemergence herbicidal activity, velvetleaf. The following applies: post-emergence, 336 h, postemergence, after 14 d, 0 = no injury, 100 = complete kill, read-out: ABUTH % Visual Injury; for pest or weed control at 35 g/ha: 35 g ai/ha; for pest or weed control at 70 g/ha: 70 g ai/ha; for pest or weed control at 140 g/ha: 140 g ai/ha. The procedure:
as §1, §2, §3

Another assay deals with corn (Zea mays). As to the kind of experiment: General postemergence herbicidal activity, corn. Particulars: post-emergence, 336 h, postemergence, after 14 d, 0 = no injury, 100 = complete kill, read-out: ZEAMX % Visual Injury; for plant injury at 35 g/ha: 35 g ai/ha; for plant injury at 70 g/ha: 70 g ai/ha; for plant injury at 140 g/ha: 140 g ai/ha. On the procedure:
as §1, §2, §3

Assay [3] concerns lambsquarters (Chenopodium album). As to the kind of experiment: General postemergence herbicidal activity, lambsquarters. The following applies: post-emergence, 336 h, postemergence, after 14 d, 0 = no injury, 100 = complete kill, read-out: CHEAL % Visual Injury; for pest or weed control at 35 g/ha: 35 g ai/ha; for pest or weed control at 70 g/ha: 70 g ai/ha; for pest or weed control at 140 g/ha: 140 g ai/ha. On the procedure: as §1, §2, §3

On to `COc1c(Cl)ccc(-c2cc(N)c(Cl)c(C(=O)NOCc3ccccc3)n2)c1F` [Compound 5, 4-Amino-N-(benzyloxy)-3-chloro-6-(4-chloro-2-fluoro-3-methoxyphenyl)picolinamide], for which the pest or weed control at 35 g/ha in assay [1], in assay [2] and in assay [3] was 100% throughout. The plant injury at 35 g/ha with corn (Zea mays) was 0%.
In the case of `COc1c(Cl)ccc(-c2cc(N)c(Cl)c(C(=O)N(C)OC)n2)c1F` [Compound 6, 4-Amino-3-chloro-6-(4-chloro-2-fluoro-3-methoxyphenyl)-N-methoxy-N-methyl-picolinamide], the pest or weed control at 70 g/ha in assay [1], in assay [2] and in assay [3] was 100% throughout. Also, the plant injury at 70 g/ha in the assay on corn (Zea mays) was 0%.
`CCCONC(=O)c1nc(-c2ccc(Cl)c(OC)c2F)cc(N)c1Cl` [Compound 7, 4-Amino-3-chloro-6-(4-chloro-2-fluoro-3-methoxyphenyl)-N-propoxypicolinamide]: the pest or weed control at 35 g/ha in assay [1], in assay [2] and in assay [3] was 100% each time. Moreover, the plant injury at 35 g/ha in the assay on corn (Zea mays) came out at 25%.
With `COc1c(Cl)ccc(-c2cc(N)c(Cl)c(C(=O)NOC(C)C)n2)c1F` [Compound 8, 4-Amino-3-chloro-6-(4-chloro-2-fluoro-3-methoxyphenyl)-N-isopropoxypicolinamide], the pest or weed control at 70 g/ha in assay [1], in assay [2] and in assay [3] was 100% in each case. For the same compound, the plant injury at 70 g/ha in the assay with corn (Zea mays) amounted to 0%.
In the case of `C=CCON(C(C)=O)C(=O)c1nc(-c2ccc(Cl)c(OC)c2F)nc(N)c1C=C` [Compound 9, N-Acetyl-N-(2-propenyloxy)-6-amino-2-(4-chloro-2-fluoro-3-methoxyphenyl)-5-vinylpyrimidine-4-carboxamide], the pest or weed control at 140 g/ha in assay [1] came out at 80%; in assay [2] it was 95%; in assay [3], 100%. The plant injury at 140 g/ha with corn (Zea mays) worked out at 25%.
Taken in the same sequence, the figures for `C=CCONC(=O)c1nc(-c2ccc(Cl)c(OC)c2F)nc(N)c1C=C` [Compound 10, N-(2-Propenyloxy)-6-amino-2-(4-chloro-2-fluoro-3-methoxyphenyl)-5-vinylpyrimidine-4-carboxamide] were 15%, 100%, 85% and 15%.
The matching figures for `C=CCONC(=O)c1nc(C2CC2)nc(N)c1Cl` [Compound 11, N-(2-Propenyloxy)-6-amino-5-chloro-2-cyclopropylpyrimidine-4-carboxamide]: 100%, 40%, 100% and 20%.
With `COc1c(Cl)ccc(-c2cc(N)c(Cl)c(C(=O)NOC3CCCCO3)n2)c1F` (stereo not drawn) [Compound 12, 4-amino-3-chloro-6-(4-chloro-2-fluoro-3-methoxyphenyl)-N-(tetrahydro-2H-pyran-2-yloxy)picolinamide], the pest or weed control at 70 g/ha in assay [1], in assay [2] and in assay [3] was 100% throughout. For the same compound, the plant injury at 70 g/ha in the assay on corn (Zea mays) was determined as 0%.
Turning to `C#CCONC(=O)c1nc(-c2ccc(Cl)c(OC)c2F)cc(N)c1Cl` [Compound 13, 4-Amino-3-chloro-6-(4-chloro-2-fluoro-3-methoxyphenyl)-N-(2-propynyloxy)picolinamide], the pest or weed control at 70 g/ha in assay [1], in assay [2] and in assay [3] was 100% each time. Moreover, the plant injury at 70 g/ha in the assay with corn (Zea mays) turned out to be 0%.
`COc1c(Cl)ccc(-c2cc(N)c(Cl)c(C(=O)NOCc3ccc(C)cc3)n2)c1F` [Compound 14, 4-Amino-3-chloro-6-(4-chloro-2-fluoro-3-methoxyphenyl)-N-(4-methyl-benzyloxy)picolinamide]: the pest or weed control at 70 g/ha in assay [1], in assay [2] and in assay [3] was 100% throughout. The plant injury at 70 g/ha in the assay with corn (Zea mays) stood at 15%.
Turning to `COc1c(Cl)ccc(-c2cc(N)c(Cl)c(C(=O)NOCc3ccc(Cl)cc3)n2)c1F` [Compound 15, 4-Amino-3-chloro-6-(4-chloro-2-fluoro-3-methoxyphenyl)-N-(4-chloro-benzyloxy)picolinamide], the pest or weed control at 70 g/ha in assay [1], in assay [2] and in assay [3] was 100% throughout. For the same compound, the plant injury at 70 g/ha with corn (Zea mays) amounted to 10%.
Turning to `COC[C@H]1O[C@H](ONC(=O)c2nc(-c3ccc(Cl)c(OC)c3F)cc(N)c2Cl)[C@H](OC)[C@@H](OC)[C@@H]1OC` [Compound 16, 4-Amino-3-chloro-6-(4-chloro-2-fluoro-3-methoxyphenyl)-N-((2R,3R,4S,5R,6R)-3,4,5-trimethoxy-6-(methoxymethyl)tetrahydro-2H-pyran-2-yloxy)picolinamide], the pest or weed control at 70 g/ha in assay [1] was 95%; in assay [2] it was 100%; in assay [3], 100%. In addition, the plant injury at 70 g/ha with corn (Zea mays) was determined as 10%.
For `C=C(C)CONC(=O)c1nc(-c2ccc(Cl)c(OC)c2F)cc(N)c1Cl` [Compound 28, 4-Amino-3-chloro-6-(4-chloro-2-fluoro-3-methoxyphenyl)-N-(2-methyl-2-propenyl-oxy)picolinamide], the pest or weed control at 35 g/ha in assay [2] and in assay [3] was 100% in each case. The plant injury at 35 g/ha in the assay with corn (Zea mays) is 25%.
As to `COc1c(Cl)ccc(-c2cc(N)c(Cl)c(C(=O)NOCc3cncs3)n2)c1F` [Compound 36, 4-Amino-3-chloro-6-(4-chloro-2-fluoro-3-methoxyphenyl)-N-(thiazol-5-yl-methoxy)picolinamide], the pest or weed control at 35 g/ha in assay [2] and in assay [3] was 100% throughout. Moreover, the plant injury at 35 g/ha in the assay on corn (Zea mays) was found to be 25%.
For the compound `COc1c(Cl)ccc(-c2cc(N)c(Cl)c(C(=O)NOCc3nnsc3Cl)n2)c1F` [Compound 47, 4-Amino-3-chloro-N-((5-chloro-1,2,3-thiadiazol-4-yl)methoxy)-6-(4-chloro-2-fluoro-3-methoxyphenyl)picolinamide], the pest or weed control at 17.5 g/ha in assay [2] (17.5 g ai/ha) and in assay [3] (17.5 g ai/ha) was 100% in each case. Further, the plant injury at 17.5 g/ha with corn (Zea mays) (17.5 g ai/ha) was 35%.
